# System: subjects with PAH
# Assay: Example 2 (ARIES-1) placebo-controlled Phase III trial, efficacy
# Assay type: in vivo, human
# Conditions: for change from baseline in mean 6MWD at Week 12: subjects who received supplemental oxygen
# Method: The primary objective of this study was to determine the effect of ambrisentan on exercise capacity in subjects with pulmonary arterial hypertension (PAH). The secondary objectives of this study were to evaluate effects of ambrisentan on other clinical measures of PAH, as well as safety and tolerability of the study drug.
# Study drug was provided in round, biconvex, oral tablets that were identical in appearance. Three strengths of active study drug containing 2.5 mg, 5 mg or 10 mg of ambrisentan were used in this study. All study drug was packaged in blister cards. Subjects were instructed to take study drug once daily (q.d.) by mouth (p.o.) in the morning, with or without food.
# The maximum study duration was up to 14 weeks from the time of initial screening procedures to the final study visit (Week 12). Screening procedures were performed a maximum of 2 weeks prior to the first dose of study drug. The maximum duration of study drug treatment was 12 weeks.
# Men and women, 18 years of age or older, with idiopathic PAH, PAH associated with CTD, e.g., mixed CTD, CREST syndrome, systemic sclerosis (scleroderma), overlap syndrome or systemic lupus erythematosus, or PAH associated with anorexigen use or HIV infection were enrolled in this study. Subjects were to have a documented mean PAP≧25 mmHg, PVR>3 mmHgL/min, and PCWP or LVEDP<15 mmHg. Subjects must have been able to walk a distance of at least 150 m but no more than 450 m during 2 consecutive 6MWTs to be eligible for inclusion in the study.
# After a 2 week screening period, eligible subjects were stratified based on the underlying etiology of PAH (idiopathic or non-idiopathic) and were randomized to 1 of 3 treatment groups (placebo, 5 mg or 10 mg ambrisentan) in a ratio of 1:1:1. One blinded dose reduction was permitted during the 12-week treatment period in the event of study drug intolerance (e.g., 10 mg to 5 mg, 5 mg to 2.5 mg, placebo to placebo). Subjects received a daily dose of 2.5 mg ambrisentan only if they reduced from the 5 mg dose group. Subjects were assessed for efficacy and safety at monthly intervals.
# Therefore, after a minimum treatment period of 4 weeks, subjects who met 2 or more of the following predefined early escape criteria may have been removed from the study: • (a) a decrease from baseline of at least 20% in 6MWD; • (b) an increase of 1 or more WHO functional class; • (c) worsening right ventricular failure (e.g., as indicated by increased jugular venous pressure, new or worsening hepatomegaly, ascites or peripheral edema); • (d) rapidly progressing cardiogenic, hepatic or renal failure; and/or • (e) refractory systolic hypotension (systolic blood pressure <85 mmHg).
# The primary efficacy endpoint was change from baseline in 6MWD evaluated after 12 weeks of treatment compared to placebo.
# The secondary efficacy endpoints included: • (a) time to clinical worsening of PAH, as defined by the time from randomization to the first occurrence of death, lung transplantation, hospitalization for PAH, atrial septostomy, study discontinuation due to addition of other PAH therapeutic agents, or study discontinuation due to 2 or more early escape criteria; • (b) change from baseline measured after 12 weeks of treatment compared to placebo in: • (i) WHO functional class; • (ii) SF-36® health survey physical functioning scale; • (iii) BDI immediately following exercise; and/or • (iv) an assessment of the safety and tolerability of the study drug; and • (c) change from baseline measured after 12 weeks of treatment compared to placebo in plasma levels of ET-1, BNP and cTnT. Safety Assessments
# For the ITT population, subjects were considered as belonging to their randomized treatment group, regardless of the actual treatment received.
# The primary efficacy endpoint was the change from baseline in 6MWD evaluated after 12 weeks of treatment compared to placebo, where the last observation was carried forward. […]
# [1] = 10 mg once daily, baseline to Week 12
# [2] = combined 5 mg and 10 mg groups, 12 weeks
# [3] = combined 5 mg and 10 mg groups, Week 12
# [4] = combined 5 mg and 10 mg groups, baseline to Week 12
structure (smiles),measurement,setting,value
COC(c1ccccc1)(c1ccccc1)[C@H](Oc1nc(C)cc(C)n1)C(=O)O [ambrisentan],"Change in SF-36 Social functioning, mean (SD)",[1],+4.11 ± 11.77
same,"Change in SF-36 Vitality, mean (SD)",[1],+5.03 ± 10.07
same,Change in WHO functional class: +1 class,[1],3 (4.5) subjects (% of ITT population)
same,Change in WHO functional class: +2 classes,[1],0 (0.0) subjects (% of ITT population)
same,Change in WHO functional class: no change,[1],44 (65.7) subjects (% of ITT population)
same,Change in WHO functional class: −1 class,[1],15 (22.4) subjects (% of ITT population)
same,Change in WHO functional class: −2 classes,[1],5 (7.5) subjects (% of ITT population)
same,placebo-adjusted 6MWD increase from baseline at Week 12,"WHO class I/II subgroup, 5 mg once daily",+25.6 m
same,placebo-adjusted 6MWD increase from baseline at Week 12,"WHO class I/II subgroup, 10 mg once daily",+42.0 m
same,placebo-adjusted 6MWD increase from baseline at Week 12,"WHO class III/IV subgroup, 5 mg once daily",+34.1 m
same,placebo-adjusted 6MWD increase from baseline at Week 12,"WHO class III/IV subgroup, 10 mg once daily",+56.9 m
same,placebo-adjusted BDI at Week 12,combined 5 mg and 10 mg groups,−0.6
same,Clinical worsening event: Atrial septostomy,[2],0 (0.0) subjects (% of ITT population)
same,Clinical worsening event: Death,[2],2 (1.5) subjects (% of ITT population)
same,Clinical worsening event: Escape criteria,[2],2 (1.5) subjects (% of ITT population)
same,Clinical worsening event: Hospitalization for PAH,[2],4 (3.0) subjects (% of ITT population)
same,Clinical worsening event: Lung transplantation,[2],0 (0.0) subjects (% of ITT population)
same,Clinical worsening event: Study discontinuation due to addition of PAH treatment,[2],1 (0.7) subjects (% of ITT population)
same,Clinical worsening: Total subjects with ≧1 event,[2],6 (4.5) subjects (% of ITT population)
same,"Change in 6MWD from baseline to Week 12, mean","combined 5 mg and 10 mg groups, ITT population",+33.2 meters
same,subjects who deteriorated by at least 1 WHO class,[3],3.0%
same,subjects who had an improvement of 2 WHO classes,[3],4.5%
same,"Change in SF-36 Bodily pain, mean (SD)",[4],+0.42 ± 12.81
same,"Change in SF-36 General health, mean (SD)",[4],+1.66 ± 8.74
same,"Change in SF-36 Mental component summary, mean (SD)",[4],+1.30 ± 11.89
same,"Change in SF-36 Mental health, mean (SD)",[4],+1.18 ± 11.23
same,"Change in SF-36 Physical component summary, mean (SD)",[4],+3.34 ± 8.40
same,"Change in SF-36 Role-emotional, mean (SD)",[4],+2.19 ± 15.71
same,"Change in SF-36 Role-physical, mean (SD)",[4],+5.45 ± 10.47
same,"Change in SF-36 Social functioning, mean (SD)",[4],+2.61 ± 12.78
same,"Change in SF-36 Vitality, mean (SD)",[4],+3.71 ± 10.11
same,Change in WHO functional class: +1 class,[4],4 (3.0) subjects (% of ITT population)
same,Change in WHO functional class: +2 classes,[4],0 (0.0) subjects (% of ITT population)
same,Change in WHO functional class: no change,[4],91 (67.9) subjects (% of ITT population)
same,Change in WHO functional class: −1 class,[4],33 (24.6) subjects (% of ITT population)
same,Change in WHO functional class: −2 classes,[4],6 (4.5) subjects (% of ITT population)
same,placebo-adjusted 6MWD increase from baseline at Week 12,"female subjects, 5 mg once daily",+30.9 m
same,placebo-adjusted 6MWD increase from baseline at Week 12,"female subjects, 10 mg once daily",+57.7 m
same,placebo-adjusted 6MWD increase from baseline at Week 12,"idiopathic PAH subgroup, 5 mg once daily",+42.9 m
same,placebo-adjusted 6MWD increase from baseline at Week 12,"idiopathic PAH subgroup, 10 mg once daily",+56.9 m
same,placebo-adjusted 6MWD increase from baseline at Week 12,"male subjects, 5 mg once daily",+19.9 m
same,placebo-adjusted 6MWD increase from baseline at Week 12,"male subjects, 10 mg once daily",+13.1 m
same,placebo-adjusted 6MWD increase from baseline at Week 12,"non-idiopathic PAH subgroup, 5 mg once daily",+10.2 m
same,placebo-adjusted 6MWD increase from baseline at Week 12,"non-idiopathic PAH subgroup, 10 mg once daily",+43.0 m
same,placebo-adjusted 6MWD increase from baseline at Week 12,"subjects not receiving calcium channel blockers, 5 mg once daily",+38.7 m
same,placebo-adjusted 6MWD increase from baseline at Week 12,"subjects not receiving calcium channel blockers, 10 mg once daily",+67.9 m
same,reduction in the probability of clinical worsening (hazard ratio) compared to placebo,"subjects receiving ambrisentan (combined group), 12 weeks",50%
same,subjects hospitalized for PAH,"subjects receiving ambrisentan (combined), 12 weeks",3.0%
same,placebo-adjusted 6MWD increase from baseline at Week 12,"subjects receiving calcium channel blockers, 5 mg once daily",+15.1 m
same,placebo-adjusted 6MWD increase from baseline at Week 12,"subjects receiving calcium channel blockers, 10 mg once daily",+19.6 m
same,change from baseline in mean 6MWD at Week 12,5 mg once daily,+21.1 m
same,change from baseline in mean 6MWD at Week 12,10 mg once daily,+48.0 m
